{"source": "patent EP0234931A1", "about": "“Azaanthracene compounds” (TAISHO PHARMACEUTICAL CO. LTD, priority 1986, dated 1987)", "tested_on": "p388 lymphocytic leukemia", "experiment": "P388 Lymphocytic Leukemia Test", "assay_type": "in vivo, CDF₁ mice", "conditions": "median survival time treated/control", "procedure": "P388 Lymphocytic Leukemia Test\nFemale, CDF₁ mice (5-6 weeks old, weighing 17-20 g) were intraperitoneally transplanted with 1 × 10⁶ cells of p388 lymphocytic leukemia passaged on female, DBA/2 mice on day 0.\nA suspension of the compound of formula (I) in 0.5% of gum arabic saline solution was administered intraperitoneally once a day, 5 times in all, from day l to day 5, or 2 times in all, day l and day 5. A solution of 5-fluorouracil in saline served as a reference drug, and was administered similarly. Control group were similarly administered with only 0.5% gum arabic saline solution.\nEight animals were used for the treated group with the compound of formula (I) and the reference drug, respectively, and 16 animals for control group.\nThe antitumor effect was evaluated according to the criterion of the National Cancer Institute of the United States (NCI). The survivors of each group were recorded for 30 days, and the value of T/C × 100 (%) was calculated from the median survival times for the treated animals (T) and the control animals (C). When the value is 125 or more, the drug is judged to be effective.", "key": {"[1]": {"conditions": "Dose 25.0 mg/kg intraperitoneally, administration day 1 - 5"}, "[2]": {"conditions": "Dose 50.0 mg/kg intraperitoneally, administration day 1 - 5"}}}
{"smiles": "CN(C)CCNC(=O)c1c(O)c2ccccc2c2nc3ccncc3nc12", "note": "[Compound 1, N-β-dimethylaminoethyl 5-hydroxybenzo[f]pyrido[3,4-b]quinoxaline-6-carboxamide]", "values": [{"measurement": "T/C x 100", "setting": "Dose 6.3 mg/kg intraperitoneally, administration day 1, 5, 30 days observation", "result": 133, "unit": "%"}, {"measurement": "T/C x 100", "setting": "Dose 12.5 mg/kg intraperitoneally, administration day 1, 5", "result": 137, "unit": "%"}, {"measurement": "T/C x 100", "setting": "Dose 25.0 mg/kg intraperitoneally, administration day 1, 5", "result": 275, "unit": "%"}]}
{"smiles": "CN(C)CCNC(=O)c1c(O)c2ccccc2c2nc3ncncc3nc12", "note": "[Compound 8, N-β-dimethylaminoethyl 5-hydroxynaphtho[2,1-g]pteridine-6-carboxamide]", "values": [{"measurement": "T/C x 100", "setting": "[1]", "result": 133, "unit": "%"}, {"measurement": "T/C x 100", "setting": "[2]", "result": 153, "unit": "%"}, {"measurement": "T/C x 100", "setting": "Dose 100 mg/kg intraperitoneally, administration day 1 - 5", "result": 148, "unit": "%"}]}
{"smiles": "O=c1[nH]cc(F)c(=O)[nH]1", "note": "[5-fluoro-uracil, 5-fluorouracil, reference compound]", "values": [{"measurement": "T/C x 100", "setting": "Dose 3.1 mg/kg intraperitoneally, administration day 1 - 5", "result": 136, "unit": "%"}, {"measurement": "T/C x 100", "setting": "Dose 6.3 mg/kg intraperitoneally, administration day 1 - 5", "result": 148, "unit": "%"}, {"measurement": "T/C x 100", "setting": "Dose 12.5 mg/kg intraperitoneally, administration day 1 - 5", "result": 166, "unit": "%"}, {"measurement": "T/C x 100", "setting": "[1]", "result": 176, "unit": "%"}]}
{"smiles": "CN(C)CCNC(=O)c1c(O)c2ccccc2c2nc3ncccc3nc12", "note": "[Compound 5, N-β-dimethylaminoethyl 5-hydroxybenzo[f]pyrido[3,2-b]quinoxaline-6-carboxamide]", "values": [{"measurement": "T/C x 100", "setting": "[1]", "result": 130, "unit": "%"}, {"measurement": "T/C x 100", "setting": "Dose 50.0 mg/kg intraperitoneally, administration day 1, 5", "result": 135, "unit": "%"}, {"measurement": "T/C x 100", "setting": "Dose 100 mg/kg intraperitoneally, administration day 1, 5", "result": 195, "unit": "%"}, {"measurement": "T/C x 100", "setting": "Dose 200 mg/kg intraperitoneally, administration day 1, 5", "result": 200, "unit": "%"}]}
{"smiles": "O=C(NCCNCCO)c1c(O)c2ccccc2c2nc3ncccc3nc12", "note": "[Compound 7, N-2-(2-hydroxyethylamino)ethyl 5-hydroxybenzo[f]pyrido[3,2-b]quinoxaline-6-carboxamide]", "values": [{"measurement": "T/C x 100", "setting": "[1]", "result": 174, "unit": "%"}, {"measurement": "T/C x 100", "setting": "[2]", "result": 227, "unit": "%"}]}
